pIC50: −log10 of the molar value. Counter-ions that a name gives are not always drawn.

This note sets out measurements from patent US8501770B2 (ArQule, Inc., priority 2009, dated 2013).

Sequence of Full-length inactive AKT1 (P31749 whole entry): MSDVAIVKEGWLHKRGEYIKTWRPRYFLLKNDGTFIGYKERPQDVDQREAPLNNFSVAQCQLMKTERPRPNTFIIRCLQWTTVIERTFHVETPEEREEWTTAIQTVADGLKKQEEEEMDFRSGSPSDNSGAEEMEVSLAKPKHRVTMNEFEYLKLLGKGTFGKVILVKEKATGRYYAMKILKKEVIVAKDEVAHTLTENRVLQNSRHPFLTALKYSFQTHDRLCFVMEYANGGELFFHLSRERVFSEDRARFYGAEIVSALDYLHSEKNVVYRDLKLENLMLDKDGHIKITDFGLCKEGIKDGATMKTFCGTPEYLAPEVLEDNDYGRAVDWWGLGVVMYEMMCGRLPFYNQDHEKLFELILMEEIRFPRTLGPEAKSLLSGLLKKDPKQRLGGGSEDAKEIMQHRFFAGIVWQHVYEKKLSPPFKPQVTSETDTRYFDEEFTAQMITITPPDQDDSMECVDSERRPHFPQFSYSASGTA

The target of one assay is Full-length inactive AKT1 (Homo sapiens, UniProt P31749). The experiment in a line: Inactive Akt Alpha Screen Assay. The class given is biochemical. Particulars: AlphaScreen assay (values not marked with *); read-out: Akt1 IC50, (AlphaScreen) (μM) (or if marked with “*” HTRF assay). An outline of the steps:
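AlphaScreen read-out (excitation 640 nm, emission 570 nm) after 90 min incubation at room temperature in the dark. Signal comes from crosstide phosphorylation by AKT1, which was activated by added PDK1, MAPKAPK2, ATP and lipid vesicles, captured via phospho-AKT substrate antibody and streptavidin beads.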
A general note: In Alpha technology, singlet oxygen from a donor bead excites a nearby acceptor bead.
Consider `CN1C(=O)COc2ccc(-c3ccc4nc(-c5cccnc5N)n(-c5ccc(C6(N)CCC6)cc5)c4n3)cc21` [Example 438, 6-{3-[4-(1-aminocyclobutyl)phenyl]-2-(2-aminopyridin-3-yl)-3H-imidazo[4,5-b]pyridin-5-yl}-4-methyl-2H-1,4-benzoxazin-3(4H)-one], for which the half-inhibitory concentration (IC50) (commonly the concentration at which inhibition is half-maximal) amounted to 0.0079 µM.

The same assay, now with this note: values not marked with "*": AlphaScreen assay; read-out: Akt1 IC50, (AlphaScreen).
As for `CCOc1cccc(-c2cnc3c(c2)nc(-c2cccnc2N)n3-c2ccc(CNC(=O)c3ccccc3)cc2)c1` [Example 135, N-{4-[2-(2-aminopyridin-3-yl)-6-(3-ethoxyphenyl)-3H-imidazo[4,5-b]pyridin-3-yl]benzyl}benzamide], the pIC50 (usually −log10 of the IC50, conventionally taken in molar units) was 5.74. The same measure, in the same setting: with `Cc1ccc2nc(NC(=O)Cc3ccc(-n4c(-c5cccnc5N)nc5cccnc54)cc3)sc2c1` [Example 121, hydrochloride] the figure was 6.80; with `Cc1cccc(-c2cnc3c(c2)nc(-c2cccnc2N)n3-c2ccc(CNC(=O)c3ccccc3)cc2)c1` [Example 140, N-{4-[2-(2-aminopyridin-3-yl)-6-(3-methylphenyl)-3H-imidazo[4,5-b]pyridin-3-yl]benzyl}benzamide], 5.96. As for `Nc1ncccc1-c1nc2cccnc2n1-c1ccc(CNC(=O)CC2CCCC2)cc1` [Example 73], the pIC50 was 5.58. On the same count and under the same terms, for `COc1cccc(S(=O)(=O)NCc2ccc(-n3c(-c4cccnc4N)nc4cc(Br)cnc43)cc2)c1` [Example 149, N-{4-[2-(2-aminopyridin-3-yl)-6-bromo-3H-imidazo[4,5-b]pyridin-3-yl]benzyl}-3-methoxybenzenesulfonamide] the value was 6.59. Take `COc1ccc(NC(=O)Cc2ccc(-n3c(-c4cccnc4N)nc4cccnc43)cc2)cc1F` [Example 128]: the pIC50 is 6.67. The same measure, in the same setting: for `Cc1ccccc1C(=O)NCc1ccc(-n2c(-c3cccnc3N)nc3cccnc32)cc1` [Example 70] the value was 6.72; for `Nc1ncccc1-c1nc2cccnc2n1-c1ccc(CNC(=O)c2ccc(Br)cc2)cc1` [Example 40], 7.05; for `Nc1ncccc1-c1nc2cccnc2n1-c1ccc(CNCc2ccccc2)cc1` [Example 37], 6.69. Still for that read-out and setting: for `COc1cccc(C(=O)NCc2ccc(-n3c(-c4cccnc4N)nc4cccnc43)cc2)c1` [Example 77] the value was 6.38. As to `COc1ccc(S(=O)(=O)NCc2ccc(-n3c(-c4cccnc4N)nc4cc(Br)cnc43)cc2)cc1OC` [Example 148, N-{4-[2-(2-aminopyridin-3-yl)-6-bromo-3H-imidazo[4,5-b]pyridin-3-yl]benzyl}-3,4-dimethoxybenzenesulfonamide], the pIC50 is 6.62.

Staying with this assay, now noted: values not marked with "*"; read-out: Akt1 IC50, (AlphaScreen).
`Nc1ncccc1-c1nc2cc(Br)cnc2n1-c1ccc(CNS(=O)(=O)c2ccsc2)cc1` [Example 169, N-{4-[2-(2-aminopyridin-3-yl)-6-bromo-3H-imidazo[4,5-b]pyridin-3-yl]benzyl}thiophene-3-sulfonamide]: the pIC50 was 6.72. Still for that read-out and setting: for `Cc1cnc2c(c1)nc(-c1cccnc1N)n2-c1ccc(CNC(=O)c2ccccc2-n2cccc2)cc1` [Example 214, N-(4-(2-(2-aminopyridin-3-yl)-6-methyl-3H-imidazo[4,5-b]pyridin-3-yl)benzyl)-2-(1H-pyrrol-1-yl)benzamide] the value was 7.64. Still for that read-out and setting: for `CC(C)(C)OC(=O)NCc1ccc(-n2c(-c3cccnc3N)nc3ccc(-c4ccccc4)nc32)cc1` [Example 355, tert-butyl 4-(2-(2-aminopyridin-3-yl)-5-phenyl-3H-imidazo[4,5-b]pyridin-3-yl)benzylcarbamate] the value was 6.57. The same measure, in the same setting: for `CC(=O)Nc1ccc(C(=O)NCc2ccc(-n3c(-c4cccnc4N)nc4ccc(C)nc43)cc2)cc1` [Example 249, 4-acetamido-N-(4-(2-(2-aminopyridin-3-yl)-5-methyl-3H-imidazo[4,5-b]pyridin-3-yl)benzyl)benzamide] the value was 7.60; for `Cc1cnc2c(c1)nc(-c1cccnc1N)n2-c1ccc(CNC(=O)c2ccccc2C)cc1` [Example 223, N-(4-(2-(2-aminopyridin-3-yl)-6-methyl-3H-imidazo[4,5-b]pyridin-3-yl)benzyl)-2-methylbenzamide], 7.52. Regarding `Nc1ncccc1-c1nc2ccc(-c3ccccc3)nc2n1-c1ccc(C2(N)COC2)cc1` [Example 373, 3-(3-(4-(3-aminooxetan-3-yl)phenyl)-5-phenyl-3H-imidazo[4,5-b]pyridin-2-yl)pyridin-2-amine], the pIC50 is 8.18. On the same count and under the same terms, for `CCOC(=O)Cc1ccc(-n2c(-c3cccnc3N)nc3ccc(-c4cccnc4)nc32)cc1` [Example 242, ethyl 2-(4-(2-(2-aminopyridin-3-yl)-5-(pyridin-3-yl)-3H-imidazo[4,5-b]pyridin-3-yl)phenyl)acetate] the value was 7.19. `Cc1cc(C)cc(C(=O)NCc2ccc(-n3c(-c4cccnc4N)nc4cc(C)cnc43)cc2)c1` [Example 277, N-(4-(2-(2-aminopyridin-3-yl)-6-methyl-3H-imidazo[4,5-b]pyridin-3-yl)benzyl)-3,5-dimethylbenzamide]: the pIC50 is 6.41. For the compound `CC(=O)Nc1cccc(-c2ccc3nc(-c4cccnc4N)n(-c4ccc(C5(NC(=O)OC(C)(C)C)CCC5)cc4)c3n2)c1` [Example 340, tert-butyl (1-(4-(5-(3-acetamidophenyl)-2-(2-aminopyridin-3-yl)-3H-imidazo[4,5-b]pyridin-3-yl)phenyl)cyclobutyl)carbamate], the pIC50 was 6.46. For `CC(C)(C)OC(=O)NCc1ccc(-n2c(-c3cccnc3N)nc3ccc(-c4ccc(CO)cc4)nc32)cc1` [Example 288, tert-butyl 4-(2-(2-aminopyridin-3-yl)-5-(4-(hydroxymethyl)phenyl)-3H-imidazo[4,5-b]pyridin-3-yl)benzylcarbamate], the pIC50 was 6.35. On the same count and under the same terms, for `Cc1ccc2nc(-c3cccnc3N)n(-c3ccc(CC(=O)c4ccccc4)cc3)c2n1` [Example 349, 2-(4-(2-(2-aminopyridin-3-yl)-5-methyl-3H-imidazo[4,5-b]pyridin-3-yl)phenyl)-1-phenylethanone] the value was 6.74; for `CC(=O)Nc1ccc(NC(=O)Cc2ccc(-n3c(-c4cccnc4N)nc4cc(C)cnc43)cc2)cc1` [Example 193, N-(4-acetamidophenyl)-2-(4-(2-(2-aminopyridin-3-yl)-6-methyl-3H-imidazo[4,5-b]pyridin-3-yl)phenyl)acetamide], 7.21.

Consider `Nc1ncccc1-c1nc2ccc(-c3ccccc3)nc2n1-c1ccc(NC(=O)c2ccccc2)cc1` [Example 254, N-(4-(2-(2-aminopyridin-3-yl)-5-phenyl-3H-imidazo[4,5-b]pyridin-3-yl)phenyl)benzamide], for which the negative-log IC50 (pIC50) was 7.09.

`CN(C)C(=O)c1ccc(-c2ccc3nc(-c4cccnc4N)n(-c4ccc(C5(N)CCC5)cc4)c3n2)cc1` [Example 399, 4-(3-(4-(1-aminocyclobutyl)phenyl)-2-(2-aminopyridin-3-yl)-3H-imidazo[4,5-b]pyridin-5-yl)-N,N-dimethylbenzamide]: the negative logarithm of the IC50 (pIC50) is 7.68. Still for that read-out and setting: for `Nc1ncccc1-c1nc2ccc(-c3cccc(NS(=O)(=O)C4CC4)c3)nc2n1-c1ccc(C2(N)CCC2)cc1` [Example 406, N-(3-{3-[4-(1-aminocyclobutyl)phenyl]-2-(2-aminopyridin-3-yl)-3H-imidazo[4,5-b]pyridin-5-yl}phenyl)cyclopropanesulfonamide] the value was 8.59. As to `Nc1ncccc1-c1nc2cc(C(F)(F)F)cnc2n1-c1ccc(CNC(=O)c2ccccc2)cc1` [Example 199, N-(4-(2-(2-aminopyridin-3-yl)-6-(trifluoromethyl)-3H-imidazo[4,5-b]pyridin-3-yl)benzyl)benzamide], the pIC50 is 6.70.

Take `Nc1ncccc1-c1nc2ccc(-c3ccncc3)nc2n1-c1ccc(NC(=O)c2ccccc2)cc1` [Example 256, N-(4-(2-(2-aminopyridin-3-yl)-5-(pyridin-4-yl)-3H-imidazo[4,5-b]pyridin-3-yl)phenyl)benzamide]: the pIC50 is 7.72.

With `COc1ccc(Nc2ccc3nc(-c4cccnc4N)n(-c4ccc(CNC(=O)c5ccccc5)cc4)c3n2)cc1` [Example 175], the negative-log IC50 (pIC50) is 6.22. On the same count and under the same terms, for `Nc1ncccc1-c1nc2ccc(-c3ccc(O)cc3)nc2n1-c1ccc(C2(N)CCC2)cc1` [Example 424, 4-{3-[4-(1-aminocyclobutyl)phenyl]-2-(2-aminopyridin-3-yl)-3H-imidazo[4,5-b]pyridin-5-yl}phenol] the value was 8.03; for `CN(CCO)C(=O)c1cccc(-c2ccc3nc(-c4cccnc4N)n(-c4ccc(C5(N)CCC5)cc4)c3n2)c1` [Example 386, 3-(3-(4-(1-aminocyclobutyl)phenyl)-2-(2-aminopyridin-3-yl)-3H-imidazo[4,5-b]pyridin-5-yl)-N-(2-hydroxyethyl)-N-methylbenzamide], 8.64; for `Nc1ncccc1-c1nc2cc(-c3cccnc3)cnc2n1-c1ccc(CNS(=O)(=O)c2ccccc2)cc1` [Example 200, N-(4-(2-(2-aminopyridin-3-yl)-6-(pyridin-3-yl)-3H-imidazo[4,5-b]pyridin-3-yl)benzyl)benzenesulfonamide], 7.13. Same read-out and setting: with `Nc1ncccc1-c1nc2ccc(-c3ccncc3)nc2n1-c1ccc(CNC(=O)c2ccccc2)cc1` [Example 235, N-(4-(2-(2-aminopyridin-3-yl)-5-(pyridin-4-yl)-3H-imidazo[4,5-b]pyridin-3-yl)benzyl)benzamide] the figure was 6.89; with `CNC(=O)c1ccc(-c2ccc3nc(-c4cccnc4N)n(-c4ccc(C5(N)CCC5)cc4)c3n2)cc1` [Example 400, 4-(3-(4-(1-aminocyclobutyl)phenyl)-2-(2-aminopyridin-3-yl)-3H-imidazo[4,5-b]pyridin-5-yl)-N-methylbenzamide], 7.89; with `CNC(=O)C1(c2ccc(-n3c(-c4cccnc4N)nc4ccc(-c5ccccc5)nc43)cc2)CCC1` [Example 378, 1-(4-(2-(2-aminopyridin-3-yl)-5-phenyl-3H-imidazo[4,5-b]pyridin-3-yl)phenyl)-N-methylcyclobutanecarboxamide], 7.03.
